pIC50: −log10 of the molar value.
How the values were obtained:
[1] = target: T1, human orexin-2 receptor (Homo sapiens, UniProt O43614); experiment: FLIPR Ca2+ Flux Assay, CHO cells expressing the human orexin-2 receptor; assay type: cell-based; conditions: agonist 70 pM Ala-6,12 orexin-A, read-out: hOX2R FLIPR IC50
T1 construct: expressed in transfected cells; host or cells: CHO cells
T1 sequence (O43614 1-444): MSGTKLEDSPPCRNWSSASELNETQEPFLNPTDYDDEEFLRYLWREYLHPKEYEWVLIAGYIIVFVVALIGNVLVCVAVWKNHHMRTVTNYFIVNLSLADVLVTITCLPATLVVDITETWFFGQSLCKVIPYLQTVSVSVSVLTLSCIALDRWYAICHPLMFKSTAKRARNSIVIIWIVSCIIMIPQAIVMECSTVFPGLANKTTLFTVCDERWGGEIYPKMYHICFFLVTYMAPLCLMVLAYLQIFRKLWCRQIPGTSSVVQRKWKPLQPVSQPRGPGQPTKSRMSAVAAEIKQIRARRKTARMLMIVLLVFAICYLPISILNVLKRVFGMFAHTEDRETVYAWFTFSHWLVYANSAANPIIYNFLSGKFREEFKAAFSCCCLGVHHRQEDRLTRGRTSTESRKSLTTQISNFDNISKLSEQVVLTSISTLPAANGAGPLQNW
Protocol: The utility of the compounds in accordance with the present invention as orexin receptor OX1R and/or OX2R antagonists may be readily determined without undue experimentation by methodology well known in the art, including the “FLIPR Ca^2+ Flux Assay” (Okumura et al., Biochem. Biophys. Res. Comm. 280:976-981, 2001). In a typical experiment the OX1 and OX2 receptor antagonistic activity of the compounds of the present invention was determined in accordance with the following experimental method. For intracellular calcium measurements, Chinese hamster ovary (CHO) cells expressing the rat orexin-1 receptor or the human orexin-2 receptor, are grown in Iscove's modified DMEM containing 2 mM L-glutamine, […], 1% hypoxanthine-thymidine supplement, 100 U/ml penicillin, 100 μg/ml streptomycin and 10% heat-inactivated fetal calf serum (FCS). The cells are seeded at 20,000 cells/well into Becton-Dickinson black 384-well clear bottom sterile plates coated with poly-D-lysine. All reagents were from GIBCO-Invitrogen Corp. The seeded plates are incubated overnight at 37° C. and 5% CO2. Ala-6,12 human orexin-A as the agonist is prepared as a 1 mM stock solution in 1% bovine serum albumin (BSA) and diluted in assay buffer (HBSS containing 20 mM HEPES, 0.1% BSA and 2.5 mM probenecid, pH7.4) for use in the assay at a final concentration of 70 pM. Test compounds are prepared as 10 mM stock solution in DMSO, then diluted in 384-well plates, first in DMSO, then assay buffer. On the day of the assay, cells are washed 3 times with 100 μl assay buffer and then incubated for 60 min (37° C., 5% CO2) in 60 μl assay buffer containing 1 μM Fluo-4AM ester, 0.02% pluronic acid, and 1% BSA. The dye loading solution is then aspirated and cells are washed 3 times with 100 μl assay buffer. 30 μl of that same buffer is left in each well. Within the Fluorescent Imaging Plate Reader (FLIPR, Molecular Devices), test compounds are added to the plate in a volume of 25 μl, incubated for 5 min and finally 25 μl of agonist is added. Fluorescence is measured for each well at 1 second intervals for 5 minutes and the height of each fluorescence peak is compared to the height of the fluorescence peak induced by 70 pM Ala-6,12 orexin-A with buffer in place of antagonist. For each antagonist, IC50 value (the concentration of compound needed to inhibit 50% of the agonist response) is determined. Alternatively, compound potency can be assessed by a radioligand binding assay (described in Bergman et. al. Bioorg. Med. Chem. Lett. 2008, 18, 1425-1430) in which the inhibition constant (Ki) is determined in membranes prepared from CHO cells expressing either the OX1 or OX2 receptor. The intrinsic orexin receptor antagonist activity of a compound which may be used in the present invention may be determined by these assays.

[2] = target: T2, hOX1R (Homo sapiens, UniProt O43613); experiment: FLIPR Ca2+ Flux Assay, CHO cells expressing the orexin-1 receptor; assay type: cell-based; conditions: agonist 70 pM Ala-6,12 orexin-A
T2 construct: expressed in transfected cells; host or cells: CHO cells
T2 sequence (O43613 1-425): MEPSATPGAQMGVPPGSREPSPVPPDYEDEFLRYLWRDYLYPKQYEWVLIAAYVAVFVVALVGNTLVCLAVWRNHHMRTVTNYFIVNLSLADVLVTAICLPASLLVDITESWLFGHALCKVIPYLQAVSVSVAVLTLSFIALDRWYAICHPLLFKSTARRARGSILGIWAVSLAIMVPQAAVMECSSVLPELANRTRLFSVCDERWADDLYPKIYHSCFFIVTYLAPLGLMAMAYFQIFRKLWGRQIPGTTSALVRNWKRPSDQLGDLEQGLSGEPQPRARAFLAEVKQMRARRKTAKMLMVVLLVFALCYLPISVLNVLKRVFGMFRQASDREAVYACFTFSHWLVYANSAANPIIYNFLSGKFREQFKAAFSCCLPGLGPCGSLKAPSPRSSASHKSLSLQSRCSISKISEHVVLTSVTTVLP

Row | Compound | pIC50 [1] | pIC50 [2]
1 | COC(=O)c1c(OC)ccnc1N[C@@H]1CC[C@@H](C)N(C(=O)c2c(F)cccc2-n2nccn2)C1 [Example 6, methyl 2-{[(3R,6R)-1-{[2-fluoro-6-(2H-1,2,3-triazol-2-yl)phenyl]carbonyl}-6-methylpiperidin-3-yl]amino}-4-methoxypyridine-3-carboxylate] | 7.27 | 6.81
2 | COC(=O)c1c(OC)ccnc1N[C@@H]1CC[C@@H](C)N(C(=O)c2ccccc2-n2nccn2)C1 [Example 2, Methyl 4-methoxy-2-{[(3R,6R)-6-methyl-1-{[2-(2H-1,2,3-triazol-2-yl)phenyl]carbonyl}-piperidin-3-yl]amino}pyridine-3-carboxylate] | 7.60 | 7.28
